The values that follow come from ChEMBL document CHEMBL5143619, “Antimicrobial Prenylated Isoflavones from the Leaves of the Amazonian Medicinal Plant Vatairea guianensis Aubl” (J Nat Prod, 2022).

Data set [1] can be described thus: Cytotoxicity against human HaCaT cells assessed as reduction in cell viability incubated for 24 hrs by CellTiter-Blue cell viability assay. The class given is toxicity, cell-based.
A short description of data set [2]: Selectivity index, ratio of IC50 for human HaCaT cells to IC50 for human HCT-116 cells. The conditions noted are these: read-out: Ratio IC50. The class given is toxicity.
Data set [3] in a line: Selectivity index, ratio of IC50 for human HaCaT cells to IC50 for human A-375 cells. As to conditions: read-out: Ratio IC50. The class given is toxicity.
In another data set the test system is HCT-116. Description: Cytotoxicity against human HCT-116 cells assessed as reduction in cell viability incubated for 24 hrs by CellTiter-Blue cell viability assay. The class given is functional, cell-based. The conditions noted are these: HCT-116, 24 h. For orientation: The colour change of resazurin is a common sign of viable cells or microbes.
Another data set has as its system A-375. Nature of the data set: Cytotoxicity against human A-375 cells assessed as reduction in cell viability incubated for 24 hrs by CellTiter-Blue cell viability assay. The class given is functional, cell-based. The conditions noted are these: A-375, 24 h.
Data set [4] is described as follows: Selectivity index, ratio of IC50 for human HaCaT cells to IC50 for human MDA-MB-231 cells. It counts as toxicity. As to conditions: read-out: Ratio IC50.
A further data set deals with MDA-MB-231. Description: Cytotoxicity against human MDA-MB-231 cells assessed as reduction in cell viability incubated for 24 hrs by CellTiter-Blue cell viability assay. As to conditions: MDA-MB-231, 24 h. It counts as functional, cell-based.
Data set [5] is described as follows: Selectivity index, ratio of IC50 for human HaCaT cells to IC50 for antifungal activity against Cryptococcus neoformans. The class given is toxicity. As to conditions: read-out: Ratio IC50.
A further data set has as its system Candida albicans. Nature of the data set: Antifungal activity against Candida albicans assessed as fungal growth inhibition incubated for 5 hrs under shaking condition by resazurin dye based assay. The class given is functional, organism-based.
A short description of data set [6]: Selectivity index, ratio of IC50 for human HaCaT cells to IC50 for antibacterial activity against methicillin-resistant Staphylococcus aureus. It counts as toxicity. The conditions noted are these: read-out: Ratio IC50.
A further data set relates to Staphylococcus aureus. Description: Antibacterial activity against methicillin-resistant Staphylococcus aureus assessed as bacterial growth inhibition incubated for 5 hrs under shaking condition by resazurin dye based assay. The class given is functional, organism-based.
A further data set relates to Trichophyton rubrum. Nature of the data set: Antifungal activity against Trichophyton rubrum assessed as fungal growth inhibition incubated for 72 hrs by microplate reader analysis. The class given is functional, organism-based.
In another data set the test system is Enterococcus faecium. Nature of the data set: Antibacterial activity against Enterococcus faecium assessed as bacterial growth inhibition incubated for 5 hrs by bromocresol purple dye based assay. It counts as functional, organism-based.
Data set [7] is described as follows: Selectivity index, ratio of IC50 for human HaCaT cells to IC50 for antibacterial activity against Enterococcus faecium. The conditions noted are these: read-out: Ratio IC50. It counts as toxicity.
The nature of data set [8]: Selectivity index, ratio of IC50 for human HaCaT cells to IC50 for antifungal activity against Candida albicans. The class given is toxicity. As to conditions: read-out: Ratio IC50.
A further data set concerns Cryptococcus neoformans. Nature of the data set: Antifungal activity against Cryptococcus neoformans assessed as fungal growth inhibition incubated for 5 hrs by microplate reader analysis. The class given is functional, organism-based.
Data set [9] in a line: Selectivity index, ratio of IC50 for human HaCaT cells to IC50 for antifungal activity against Trichophyton rubrum. It counts as toxicity. As to conditions: read-out: Ratio IC50.

One may read the IC50 as the point on the concentration scale where inhibition reaches its midpoint.

Turning to `CC(C)=CCc1c(O)cc(O)c2c(=O)c(-c3ccc(O)cc3)coc12`, the concentration for half-maximal inhibition (IC50) at 24 h in data set [1] came out at 160 µM. For the same compound, the selectivity ratio in data set [2] came out at 0.9; in data set [3] it was 1.8. For the same compound, the IC50 with HCT-116 turned out to be 187 µM; in the data set on A-375, 88.5 µM.
As for `COc1cc(-c2coc3c(CC=C(C)C)c(O)cc(O)c3c2=O)ccc1O`, the figures for the selectivity ratio in data set [4], in [2] and in data set [3] were 1.5, 1.9 and 1.4, respectively. Further, the IC50 at 24 h in [1] is 80.7 µM. Also, the results for the IC50 with MDA-MB-231, with HCT-116 and in the data set with A-375 were 87.5 µM, 110 µM and 58.2 µM, respectively.
On to `CC(C)(O)CCc1c(O)cc(O)c2c(=O)c(-c3ccc(O)cc3)coc12`, for which the results for the selectivity ratio in [4], in [2] and in data set [3] were 0.9, 1.4 and 0.8, respectively. In addition, the IC50 at 24 h in data set [1] was 135 µM. For the same compound, the figures for the IC50 in the data set on MDA-MB-231, in the data set with HCT-116 and in the data set on A-375 were 154 µM, 222 µM and 160 µM, respectively.
Consider `COc1ccc(-c2coc3c(CC=C(C)C)c(O)cc(O)c3c2=O)cc1O`, for which the selectivity ratio in data set [5] was 5.1; in data set [4] it was 0.6; in [2], 0.8; in data set [6], 10.3; in [3], 1.2; in data set [7], 5.5. For the same compound, the figures for the selectivity ratio in data set [8] and in data set [9] were 2.6 and 5.7, respectively. The IC50 with Candida albicans (Candida albicans, 5 h) came out at 26.9 µM; with MDA-MB-231 it was 110 µM; in the data set with HCT-116 it was 87.5 µM; with A-375 it was 58.4 µM; in the data set on Staphylococcus aureus, 6.8 µM; in the data set on Trichophyton rubrum, 12.2 µM. Moreover, the half-inhibitory concentration (IC50) in the data set with Enterococcus faecium was 12.8 µM; in the data set with Cryptococcus neoformans, 13.6 µM. Besides, the IC50 at 24 h in data set [1] was found to be 69.8 µM.
`CC(C)(O)CCc1c(O)cc(O)c2c(=O)c(-c3ccc(O)c(O)c3)coc12`: the IC50 at 24 h in [1] was found to be 85.9 µM. Also, the selectivity ratio in data set [6] stood at 2.9. Also, the IC50 in the data set with Staphylococcus aureus turned out to be 29.6 µM.
On to `COc1cc(-c2coc3c(CCC(C)(C)O)c(O)cc(O)c3c2=O)ccc1O`, for which the IC50 at 24 h in data set [1] worked out at 207 µM. Besides, the selectivity ratio came out at 0.9 in [2], 5.6 in data set [6], 0.8 in data set [3] and 2.6 in data set [7]. The IC50 with HCT-116 came out at 234 µM; with A-375, 250 µM; in the data set on Staphylococcus aureus it was 37 µM; in the data set on Enterococcus faecium, 80.6 µM.
`COc1ccc(-c2coc3c(CCC(C)(C)O)c(O)cc(O)c3c2=O)cc1O`: in data set [6], the selectivity ratio is above 5.5. Moreover, the half-maximal inhibitory concentration (IC50) in the data set with Staphylococcus aureus came out at 49 µM.
As to `C[C@@H]1[C@H](O)[C@@H](C)/C=C/C=C/C=C/C=C/C=C/C=C/C=C/[C@H](O[C@@H]2O[C@H](C)[C@@H](O)[C@H](N)[C@@H]2O)C[C@@H]2O[C@](O)(C[C@@H](O)C[C@@H](O)[C@H](O)CC[C@@H](O)C[C@@H](O)CC(=O)O[C@H]1C)C[C@H](O)[C@H]2C(=O)O` [AMPHOTERICIN B], in the data set with Cryptococcus neoformans, the 50% inhibitory concentration (IC50) is 0.2 µM.
In the case of `CC1(C)S[C@@H]2[C@H](NC(=O)[C@H](N)c3ccccc3)C(=O)N2[C@H]1C(=O)O` [AMPICILLIN], the 50% inhibitory concentration (IC50) in the data set with Enterococcus faecium is 0.6 µM.
On to `O=C(N[C@H](CO)[C@H](O)c1ccc([N+](=O)[O-])cc1)C(Cl)Cl` [CHLORAMPHENICOL], for which the IC50 in the data set on Staphylococcus aureus stood at 3.1 µM.
For the compound `Clc1ccccc1C(c1ccccc1)(c1ccccc1)n1ccnc1` [CLOTRIMAZOLE], in the data set on Trichophyton rubrum, the IC50 is 0.3 µM.
On to `COc1cccc2c1C(=O)c1c(O)c3c(c(O)c1C2=O)C[C@@](O)(C(=O)CO)C[C@@H]3O[C@H]1C[C@H](N)[C@H](O)[C@H](C)O1` [DOXORUBICIN], for which the IC50 at 24 h in data set [1] was found to be 50 µM. In addition, the IC50 in the data set with MDA-MB-231 is 25.8 µM; with HCT-116, 49.5 µM; with A-375, 0.4 µM.
Turning to NYSTATIN, in the data set with Candida albicans, the IC50 was 1.3 µM.
